Experiments:
[1] = target: Serine/threonine-protein kinase Sgk1 (Homo sapiens) (UniProt O00141); settings: Compound concentration 100.0 nM
[2] = target: Serine/threonine-protein kinase 38 (Homo sapiens) (UniProt Q15208); settings: Compound concentration 100.0 nM
[3] = target: Histamine H1 receptor (Homo sapiens) (UniProt P35367); settings: Compound concentration 10.0 uM
[4] = system: Tyrosine-protein kinase ABL1 (Homo sapiens), P00519 [E255K]; settings: Compound concentration 100.0 nM
[5] = system: Hepatocyte growth factor receptor (Homo sapiens), P08581 [Y1235D]; settings: Compound concentration 100.0 nM
[6] = target: Cyclin-dependent kinase-like 3 (Homo sapiens) (UniProt Q8IVW4); settings: Compound concentration 100.0 nM
[7] = system: Receptor-type tyrosine-protein kinase FLT3 (Homo sapiens), P36888 [N841I]; settings: Compound concentration 100.0 nM
[8] = target: Serine/threonine-protein kinase Nek7 (Homo sapiens) (UniProt Q8TDX7); settings: Compound concentration 100.0 nM
Sequence of Serine/threonine-protein kinase Nek7 (Homo sapiens) (Q8TDX7 whole entry, looked up): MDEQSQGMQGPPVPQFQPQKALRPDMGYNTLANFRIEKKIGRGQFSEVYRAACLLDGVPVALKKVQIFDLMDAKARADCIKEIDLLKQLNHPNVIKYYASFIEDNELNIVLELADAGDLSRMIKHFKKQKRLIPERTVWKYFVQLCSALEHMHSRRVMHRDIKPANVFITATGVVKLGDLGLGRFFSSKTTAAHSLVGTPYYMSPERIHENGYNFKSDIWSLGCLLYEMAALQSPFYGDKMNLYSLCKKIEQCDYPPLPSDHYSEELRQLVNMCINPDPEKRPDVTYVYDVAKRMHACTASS

[9] = target: Serine/threonine-protein kinase RIO2 (Homo sapiens) (UniProt Q9BVS4); settings: Compound concentration 100.0 nM
[10] = target: Tyrosine-protein kinase Fes/Fps (Homo sapiens) (UniProt P07332); settings: Compound concentration 100.0 nM
[11] = target: Serine/threonine-protein kinase RIO3 (Homo sapiens) (UniProt O14730); settings: Compound concentration 100.0 nM
[12] = target: Hormonally up-regulated neu tumor-associated kinase (Homo sapiens) (UniProt P57058); settings: Compound concentration 100.0 nM
[13] = target: Cyclin-dependent kinase 16 (Homo sapiens) (UniProt Q00536); settings: Compound concentration 100.0 nM
[14] = system: Mast/stem cell growth factor receptor Kit (Homo sapiens), P10721 [V559D,V654A]; settings: Compound concentration 100.0 nM
[15] = target: GABA-A receptor; anion channel (Rattus norvegicus) (UniProt O09028+P15431+P18506+P18508+P19969+P20236+P23574+P23576+P28471+P28473+P30191+P62813+P63079+P63138+Q91ZM7+Q9ES14); settings: Compound concentration 10.0 uM
[16] = target: Myosin-IIIb (Homo sapiens) (UniProt Q8WXR4); settings: Compound concentration 100.0 nM
Sequence of Myosin-IIIb (Homo sapiens) (Q8WXR4 whole entry): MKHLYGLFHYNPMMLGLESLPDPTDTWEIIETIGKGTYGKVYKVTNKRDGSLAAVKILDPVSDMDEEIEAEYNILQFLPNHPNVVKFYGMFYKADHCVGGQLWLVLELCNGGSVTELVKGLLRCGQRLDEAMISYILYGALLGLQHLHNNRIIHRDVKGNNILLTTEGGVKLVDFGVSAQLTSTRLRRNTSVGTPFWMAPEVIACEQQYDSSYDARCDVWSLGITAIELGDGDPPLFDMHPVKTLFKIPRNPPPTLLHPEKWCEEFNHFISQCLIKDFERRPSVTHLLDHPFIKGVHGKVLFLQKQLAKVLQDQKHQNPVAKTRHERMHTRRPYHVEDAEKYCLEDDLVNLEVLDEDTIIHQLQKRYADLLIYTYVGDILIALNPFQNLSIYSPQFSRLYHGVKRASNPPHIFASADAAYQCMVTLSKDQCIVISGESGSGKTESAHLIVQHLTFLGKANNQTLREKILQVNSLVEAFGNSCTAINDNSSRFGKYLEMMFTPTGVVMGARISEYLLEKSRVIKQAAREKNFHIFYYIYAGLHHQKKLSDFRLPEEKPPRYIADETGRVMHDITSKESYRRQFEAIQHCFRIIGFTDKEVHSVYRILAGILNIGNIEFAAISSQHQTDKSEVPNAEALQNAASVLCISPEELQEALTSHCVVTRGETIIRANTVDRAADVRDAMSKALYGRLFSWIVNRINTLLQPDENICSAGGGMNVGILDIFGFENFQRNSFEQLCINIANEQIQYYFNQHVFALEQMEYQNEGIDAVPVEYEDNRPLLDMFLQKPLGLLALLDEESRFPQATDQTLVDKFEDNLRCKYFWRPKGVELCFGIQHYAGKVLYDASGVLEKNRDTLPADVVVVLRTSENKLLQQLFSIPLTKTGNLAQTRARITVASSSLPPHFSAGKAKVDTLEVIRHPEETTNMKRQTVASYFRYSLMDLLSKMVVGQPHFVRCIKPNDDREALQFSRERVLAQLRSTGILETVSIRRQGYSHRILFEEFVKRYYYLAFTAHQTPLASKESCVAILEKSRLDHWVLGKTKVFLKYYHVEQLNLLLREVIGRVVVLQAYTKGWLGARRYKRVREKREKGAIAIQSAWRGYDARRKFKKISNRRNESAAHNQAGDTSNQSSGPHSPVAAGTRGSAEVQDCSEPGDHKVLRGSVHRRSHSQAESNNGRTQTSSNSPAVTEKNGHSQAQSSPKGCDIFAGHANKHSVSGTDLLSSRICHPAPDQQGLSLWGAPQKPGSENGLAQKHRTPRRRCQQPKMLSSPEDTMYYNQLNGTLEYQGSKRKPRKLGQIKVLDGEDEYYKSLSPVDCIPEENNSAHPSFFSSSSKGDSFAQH

[17] = target: Tyrosine-protein kinase HCK (Homo sapiens) (UniProt P08631); settings: Compound concentration 100.0 nM
Sequence of Tyrosine-protein kinase HCK (Homo sapiens) (P08631 2-526 limits assumed): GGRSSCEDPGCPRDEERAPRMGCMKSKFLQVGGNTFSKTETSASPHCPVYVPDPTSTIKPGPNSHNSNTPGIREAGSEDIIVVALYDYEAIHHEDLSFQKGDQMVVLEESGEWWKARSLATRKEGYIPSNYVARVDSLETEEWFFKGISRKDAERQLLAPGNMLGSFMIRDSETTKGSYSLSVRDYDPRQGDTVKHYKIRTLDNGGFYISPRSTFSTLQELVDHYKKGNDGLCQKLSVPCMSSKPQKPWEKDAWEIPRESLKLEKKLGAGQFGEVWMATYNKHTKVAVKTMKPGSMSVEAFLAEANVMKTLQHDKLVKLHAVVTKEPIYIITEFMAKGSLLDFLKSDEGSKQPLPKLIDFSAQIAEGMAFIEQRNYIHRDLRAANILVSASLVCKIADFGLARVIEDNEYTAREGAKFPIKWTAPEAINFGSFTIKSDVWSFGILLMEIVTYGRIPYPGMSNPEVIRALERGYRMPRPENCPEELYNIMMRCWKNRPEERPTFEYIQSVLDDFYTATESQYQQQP

[18] = target: Protein kinase C theta type (Homo sapiens) (UniProt Q04759); settings: Compound concentration 100.0 nM
[19] = target: Serine/threonine-protein kinase WNK4 (Homo sapiens) (UniProt Q96J92); settings: Compound concentration 100.0 nM
[20] = target: Tyrosine-protein kinase FRK (Homo sapiens) (UniProt P42685); settings: Compound concentration 100.0 nM
[21] = target: Receptor tyrosine-protein kinase erbB-2 (Homo sapiens) (UniProt P04626); settings: Compound concentration 100.0 nM
[22] = target: Homeodomain-interacting protein kinase 4 (Homo sapiens) (UniProt Q8NE63); settings: Compound concentration 100.0 nM
Sequence of Homeodomain-interacting protein kinase 4 (Homo sapiens) (Q8NE63 whole entry): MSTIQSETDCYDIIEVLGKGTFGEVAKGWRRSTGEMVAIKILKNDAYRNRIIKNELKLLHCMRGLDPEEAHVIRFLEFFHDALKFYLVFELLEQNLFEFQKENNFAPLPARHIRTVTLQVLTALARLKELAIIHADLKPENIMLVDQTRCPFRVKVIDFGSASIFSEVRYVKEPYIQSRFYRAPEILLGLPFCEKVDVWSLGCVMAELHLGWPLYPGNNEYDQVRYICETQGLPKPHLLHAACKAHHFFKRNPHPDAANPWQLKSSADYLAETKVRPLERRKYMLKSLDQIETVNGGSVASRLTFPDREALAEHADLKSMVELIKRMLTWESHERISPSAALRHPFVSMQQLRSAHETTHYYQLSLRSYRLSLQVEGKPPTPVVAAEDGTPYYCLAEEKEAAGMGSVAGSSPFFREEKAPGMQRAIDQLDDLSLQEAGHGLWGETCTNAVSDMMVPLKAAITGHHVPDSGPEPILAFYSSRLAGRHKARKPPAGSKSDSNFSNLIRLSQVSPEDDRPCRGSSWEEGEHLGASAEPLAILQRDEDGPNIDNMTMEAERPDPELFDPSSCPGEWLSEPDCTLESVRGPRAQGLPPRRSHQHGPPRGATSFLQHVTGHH

[23] = system: Tyrosine-protein kinase ABL1 (Homo sapiens), P00519 [T315I]; settings: Compound concentration 100.0 nM
[24] = system: Phosphatidylinositol 4,5-bisphosphate 3-kinase catalytic subunit alpha isoform (Homo sapiens), P42336 [C420R]; settings: Compound concentration 100.0 nM
Sequence of Phosphatidylinositol 4,5-bisphosphate 3-kinase catalytic subunit alpha isoform (Homo sapiens), P42336 [C420R] (P42336 whole entry C420R, canonical isoform): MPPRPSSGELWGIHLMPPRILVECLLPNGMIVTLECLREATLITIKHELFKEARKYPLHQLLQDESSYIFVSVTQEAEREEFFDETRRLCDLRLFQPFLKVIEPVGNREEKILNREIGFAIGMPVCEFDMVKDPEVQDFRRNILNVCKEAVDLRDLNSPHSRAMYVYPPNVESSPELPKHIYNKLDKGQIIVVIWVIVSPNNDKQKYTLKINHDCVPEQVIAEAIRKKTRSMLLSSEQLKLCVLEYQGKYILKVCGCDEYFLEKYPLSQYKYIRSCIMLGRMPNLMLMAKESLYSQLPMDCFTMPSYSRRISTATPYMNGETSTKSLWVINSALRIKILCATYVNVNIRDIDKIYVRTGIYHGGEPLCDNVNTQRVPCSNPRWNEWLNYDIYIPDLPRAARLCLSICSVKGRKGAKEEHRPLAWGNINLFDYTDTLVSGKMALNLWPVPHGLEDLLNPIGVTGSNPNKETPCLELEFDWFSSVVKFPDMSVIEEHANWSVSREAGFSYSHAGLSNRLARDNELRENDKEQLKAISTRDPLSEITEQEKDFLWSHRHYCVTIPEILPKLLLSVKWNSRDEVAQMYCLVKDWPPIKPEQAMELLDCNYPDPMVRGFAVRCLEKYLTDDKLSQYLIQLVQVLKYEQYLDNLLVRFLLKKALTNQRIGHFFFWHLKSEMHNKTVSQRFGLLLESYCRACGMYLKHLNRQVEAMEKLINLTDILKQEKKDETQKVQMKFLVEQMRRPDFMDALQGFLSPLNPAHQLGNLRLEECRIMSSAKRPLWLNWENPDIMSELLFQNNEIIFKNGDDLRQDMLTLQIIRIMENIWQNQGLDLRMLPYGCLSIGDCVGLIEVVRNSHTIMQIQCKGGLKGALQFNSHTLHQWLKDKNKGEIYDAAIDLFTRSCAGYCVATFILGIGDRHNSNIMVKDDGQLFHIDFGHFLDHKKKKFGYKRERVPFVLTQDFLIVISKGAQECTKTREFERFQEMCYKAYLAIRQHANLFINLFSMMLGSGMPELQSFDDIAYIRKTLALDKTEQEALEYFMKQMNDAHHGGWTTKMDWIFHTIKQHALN

[25] = target: Rhodopsin kinase GRK1 (Homo sapiens) (UniProt Q15835); settings: Compound concentration 100.0 nM
[26] = target: Cyclin-dependent kinase-like 2 (Homo sapiens) (UniProt Q92772); settings: Compound concentration 100.0 nM
[27] = target: Mitogen-activated protein kinase kinase kinase 6 (Homo sapiens) (UniProt O95382); settings: Compound concentration 100.0 nM
[28] = target: Serine/threonine-protein kinase LATS2 (Homo sapiens) (UniProt Q9NRM7); settings: Compound concentration 100.0 nM
[29] = target: Phosphatidylinositol 4-kinase beta (Homo sapiens) (UniProt Q9UBF8); settings: Compound concentration 100.0 nM
[30] = target: Mitogen-activated protein kinase kinase kinase kinase 3 (Homo sapiens) (UniProt Q8IVH8); settings: Compound concentration 100.0 nM
[31] = target: Mitogen-activated protein kinase kinase kinase 4 (Homo sapiens) (UniProt Q9Y6R4); settings: Compound concentration 100.0 nM
[32] = target: Tyrosine-protein kinase Lck (Homo sapiens) (UniProt P06239); settings: Compound concentration 100.0 nM
[33] = target: Serine/threonine-protein kinase PAK 6 (Homo sapiens) (UniProt Q9NQU5); settings: Compound concentration 100.0 nM
[34] = target: Tyrosine-protein kinase TXK (Homo sapiens) (UniProt P42681); settings: Compound concentration 100.0 nM
[35] = target: RAC-alpha serine/threonine-protein kinase (Homo sapiens) (UniProt P31749); settings: Compound concentration 100.0 nM
[36] = system: Tyrosine-protein kinase ABL1 (Homo sapiens), P00519 [H396P]; settings: Compound concentration 100.0 nM
[37] = target: Rho-associated protein kinase 2 (Homo sapiens) (UniProt O75116); settings: Compound concentration 10.0 uM
[38] = target: cAMP-dependent protein kinase catalytic subunit alpha (Homo sapiens) (UniProt P17612); settings: Compound concentration 10.0 uM
[39] = target: Tyrosine-protein kinase BTK (Homo sapiens) (UniProt Q06187); settings: Compound concentration 10.0 uM
[40] = target: Serine/threonine-protein kinase PAK 4 (Homo sapiens) (UniProt O96013); settings: Compound concentration 10.0 uM
[41] = target: Rho-associated protein kinase 1 (Homo sapiens) (UniProt Q13464); settings: Compound concentration 10.0 uM
[42] = target: Ribosomal protein S6 kinase beta-1 (Homo sapiens) (UniProt P23443); settings: Compound concentration 10.0 uM
[43] = target: Glycogen synthase kinase-3 beta (Homo sapiens) (UniProt P49841); settings: Compound concentration 10.0 uM

Sequence of Serine/threonine-protein kinase Sgk1 (Homo sapiens) (O00141 whole entry): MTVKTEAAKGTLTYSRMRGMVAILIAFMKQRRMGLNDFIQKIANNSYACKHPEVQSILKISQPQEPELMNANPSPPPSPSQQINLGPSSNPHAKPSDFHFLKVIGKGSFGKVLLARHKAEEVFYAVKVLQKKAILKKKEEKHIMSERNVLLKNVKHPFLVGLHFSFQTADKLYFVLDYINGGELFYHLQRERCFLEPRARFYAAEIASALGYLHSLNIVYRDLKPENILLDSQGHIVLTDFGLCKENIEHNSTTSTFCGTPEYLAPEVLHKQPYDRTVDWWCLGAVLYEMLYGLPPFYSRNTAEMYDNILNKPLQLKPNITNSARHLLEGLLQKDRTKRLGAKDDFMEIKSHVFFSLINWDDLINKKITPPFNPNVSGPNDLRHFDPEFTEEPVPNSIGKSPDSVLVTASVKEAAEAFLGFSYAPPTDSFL
Sequence of Serine/threonine-protein kinase 38 (Homo sapiens) (Q15208 2-465 limits assumed): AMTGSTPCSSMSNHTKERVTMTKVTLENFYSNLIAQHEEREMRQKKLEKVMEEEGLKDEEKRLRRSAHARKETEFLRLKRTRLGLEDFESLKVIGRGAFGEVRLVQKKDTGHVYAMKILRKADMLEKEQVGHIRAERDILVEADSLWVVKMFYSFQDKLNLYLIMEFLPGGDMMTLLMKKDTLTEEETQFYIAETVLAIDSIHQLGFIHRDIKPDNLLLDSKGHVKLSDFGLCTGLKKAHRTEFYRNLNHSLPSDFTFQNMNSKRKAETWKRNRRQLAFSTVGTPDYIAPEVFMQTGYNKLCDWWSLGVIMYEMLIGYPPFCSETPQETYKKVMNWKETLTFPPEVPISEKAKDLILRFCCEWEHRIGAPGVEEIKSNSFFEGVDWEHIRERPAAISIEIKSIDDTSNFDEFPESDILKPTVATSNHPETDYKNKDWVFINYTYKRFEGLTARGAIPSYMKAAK

Cn1nc(C(=O)NCc2ccc(C(=O)O)cc2)cc1-c1ccc2[nH]ccc2c1 [BI 4395]
residual activity [1]: 88% | residual activity [2]: 92% | inhibition [3]: 8.74% | residual activity [4]: 65% | residual activity [5]: 100% | residual activity [6]: 100% | residual activity [7]: 100% | residual activity [8]: 98% | residual activity [9]: 100% | residual activity [10]: 95% | residual activity [11]: 83% | residual activity [12]: 65% | residual activity [13]: 93% | residual activity [14]: 95% | inhibition [15]: 29.1% | residual activity [16]: 100% | residual activity [17]: 81% | residual activity [18]: 99% | residual activity [19]: 100% | residual activity [20]: 100% | residual activity [21]: 92% | residual activity [22]: 100% | residual activity [23]: 71% | residual activity [24]: 84% | residual activity [25]: 100% | residual activity [26]: 78% | residual activity [27]: 88% | residual activity [28]: 100% | residual activity [29]: 70% | residual activity [30]: 97% | residual activity [31]: 86% | residual activity [32]: 75% | residual activity [33]: 96% | residual activity [34]: 90% | residual activity [35]: 100% | residual activity [36]: 71%

CCOC(=O)c1cc2cc(-c3cc(C(=O)NCc4ccc(C(=O)O)cc4)nn3C)ccc2[nH]1 [BI 4394]
residual activity [1]: 100% | residual activity [2]: 95% | inhibition [3]: 9.64% | residual activity [4]: 88% | residual activity [5]: 86% | residual activity [6]: 0% | residual activity [7]: 81% | residual activity [8]: 100% | residual activity [9]: 100% | residual activity [10]: 94% | residual activity [11]: 100% | residual activity [37]: 56% | residual activity [12]: 100% | residual activity [13]: 75% | residual activity [14]: 100% | residual activity [38]: 10% | inhibition [15]: 1.07% | residual activity [16]: 84% | residual activity [17]: 100% | residual activity [39]: 68% | residual activity [18]: 97% | residual activity [19]: 97% | residual activity [20]: 100% | residual activity [21]: 99% | residual activity [22]: 87% | residual activity [23]: 92% | residual activity [24]: 83% | residual activity [25]: 95% | residual activity [40]: 75% | residual activity [26]: 88% | residual activity [41]: 97% | residual activity [27]: 79% | residual activity [28]: 74% | residual activity [42]: 89% | residual activity [29]: 79% | residual activity [30]: 89% | residual activity [31]: 91% | residual activity [43]: 6% | residual activity [32]: 94% | residual activity [33]: 99% | residual activity [34]: 90% | residual activity [35]: 100% | residual activity [36]: 88%
